Results as given in the NIST ThermoML archive (doi:10.1021/acs.jced.7b01053).
Several values for one entry are separate records, joined by “and”; a condition that tells them apart may be missing. Identical values can stand only once.

Experiment: mn = molality of the nth substance listed, in mol/kg
Conditions: 293 K, 100 kPa, Liquid, Alternating current cell with electrodes

CCC(=O)[O-].C[NH2+]CCO [2-hydroxy-N-methylethanaminium propionate] + O
Conditions	electrical conductivity [S/m]
m1 = 0.01487	0.066
m1 = 0.0155	0.073
m1 = 0.03159	0.133
m1 = 0.03183	0.139
m1 = 0.04881	0.195
m1 = 0.0489	0.202
m1 = 0.06492	0.266
m1 = 0.06527	0.277
m1 = 0.08046	0.329
m1 = 0.08214	0.323
m1 = 0.09748	0.384
m1 = 0.09889	0.378
m1 = 0.1136	0.436
m1 = 0.1159	0.427
m1 = 0.1305	0.487
m1 = 0.1324	0.476
m1 = 0.1464	0.536
m1 = 0.1495	0.523
m1 = 0.1622	0.604
m1 = 0.1651	0.568
m1 = 0.1776	0.648
m1 = 0.1814	0.613
m1 = 0.1935	0.69
m1 = 0.1966	0.654
m1 = 0.2081	0.727
m1 = 0.2121	0.694
m1 = 0.223	0.764
m1 = 0.2264	0.702
m1 = 0.237	0.798
m1 = 0.2408	0.721
m1 = 0.25	0.829
m1 = 0.2542	0.723
m1 = 0.2632	0.872
m1 = 0.2677	0.786
m1 = 0.2756	0.908
m1 = 0.28	0.814
m1 = 0.2879	0.933
m1 = 0.2922	0.834
m1 = 0.2994	0.957
m1 = 0.3036	0.86
m1 = 0.3106	0.98
m1 = 0.3149	0.906
m1 = 0.3211	1
m1 = 0.3255	0.923
m1 = 0.3317	1.02
m1 = 0.3357	0.946
m1 = 0.3415	1.04
m1 = 0.3454	0.967
m1 = 0.3511	1.06
m1 = 0.355	0.987
m1 = 0.3602	1.08
m1 = 0.364	1.01
m1 = 0.3691	1.09
m1 = 0.3726	1.03
m1 = 0.3774	1.11
m1 = 0.3808	1.05
m1 = 0.3856	1.13
m1 = 0.3885	1.05
m1 = 0.3933	1.15
m1 = 0.396	1.07
m1 = 0.4009	1.17
m1 = 0.4032	1.09
m1 = 0.4079	1.19
m1 = 0.4098	1.09
m1 = 0.4148	1.21
m1 = 0.4165	1.11
m1 = 0.4227	1.12

CCC(=O)[O-].[NH3+]CCO [2-hydroxyethan-1-aminium propionate] + O
Conditions	electrical conductivity
m1 = 0.01786	0.107 S/m
m1 = 0.022	0.116 S/m
m1 = 0.03491	0.198 S/m
m1 = 0.04447	0.218 S/m
m1 = 0.05416	0.312 S/m
m1 = 0.06841	0.338 S/m
m1 = 0.0728	0.4 S/m
m1 = 0.09126	0.43 S/m
m1 = 0.0929	0.485 S/m
m1 = 0.1121	0.574 S/m
m1 = 0.1137	0.521 S/m
m1 = 0.1322	0.658 S/m
m1 = 0.1373	0.612 S/m
m1 = 0.1504	0.74 S/m
m1 = 0.1594	0.695 S/m
m1 = 0.1692	0.821 S/m
m1 = 0.1822	0.78 S/m
m1 = 0.188	0.897 S/m
m1 = 0.2038	0.845 S/m
m1 = 0.2067	0.982 S/m
m1 = 0.2263	0.921 S/m
m1 = 0.2328	1.08 S/m
m1 = 0.2472	0.991 S/m
m1 = 0.2532	1.16 S/m
m1 = 0.268	1.06 S/m
m1 = 0.2729	1.24 S/m
m1 = 0.2877	1.12 S/m
m1 = 0.2905	1.3 S/m
m1 = 0.3074	1.18 S/m and 1.37 S/m
m1 = 0.3237	1.43 S/m
m1 = 0.3251	1.24 S/m
m1 = 0.3388	1.48 S/m
m1 = 0.3427	1.29 S/m
m1 = 0.3534	1.53 S/m
m1 = 0.3594	1.34 S/m
m1 = 0.3669	1.58 S/m
m1 = 0.3755	1.39 S/m
m1 = 0.3798	1.63 S/m
m1 = 0.3905	1.43 S/m
m1 = 0.3917	1.67 S/m
m1 = 0.4032	1.71 S/m
m1 = 0.4055	1.48 S/m
m1 = 0.4138	1.74 S/m
m1 = 0.4195	1.51 S/m
m1 = 0.424	1.78 S/m
m1 = 0.4334	1.55 S/m
m1 = 0.4465	1.59 S/m
m1 = 0.4591	1.62 S/m
m1 = 0.4709	1.65 S/m
m1 = 0.4825	1.67 S/m
m1 = 0.5351	1.82 S/m
m1 = 0.5473	1.85 S/m
m1 = 0.5594	1.89 S/m
m1 = 0.5705	1.93 S/m

CC(=O)[O-].[NH3+]CCO [2-hydroxyethylammonium acetate] + O
Conditions	electrical conductivity [S/m]
m1 = 0.02015	0.13
m1 = 0.0241	0.138
m1 = 0.03983	0.262
m1 = 0.04796	0.274
m1 = 0.05774	0.359
m1 = 0.07416	0.45
m1 = 0.07452	0.4
m1 = 0.09015	0.539
m1 = 0.09982	0.512
m1 = 0.1057	0.618
m1 = 0.1213	0.702
m1 = 0.1267	0.628
m1 = 0.1356	0.775
m1 = 0.1485	0.835
m1 = 0.1519	0.737
m1 = 0.1621	0.9
m1 = 0.1743	0.958
m1 = 0.1778	0.847
m1 = 0.1867	1.02
m1 = 0.2004	1.08
m1 = 0.2025	0.95
m1 = 0.2157	1.14
m1 = 0.2285	1.06
m1 = 0.2326	1.21
m1 = 0.2502	1.29
m1 = 0.2521	1.16
m1 = 0.2691	1.37
m1 = 0.2755	1.23
m1 = 0.2868	1.44
m1 = 0.2977	1.33
m1 = 0.3032	1.44
m1 = 0.3189	1.48
m1 = 0.3199	1.42
m1 = 0.3337	1.56
m1 = 0.3404	1.49
m1 = 0.3476	1.61
m1 = 0.3609	1.61
m1 = 0.3615	1.57
m1 = 0.3811	1.64
m1 = 0.3855	1.75
m1 = 0.4003	1.72
m1 = 0.4075	1.86
m1 = 0.4184	1.77
m1 = 0.4279	1.93
m1 = 0.4359	1.83
m1 = 0.4463	1.98
m1 = 0.4526	1.87
m1 = 0.4627	2.03
m1 = 0.4642	1.9
m1 = 0.4774	2.08
m1 = 0.4797	1.94
m1 = 0.4943	1.99
m1 = 0.5085	2.04
m1 = 0.5221	2.09
m1 = 0.5351	2.13
m1 = 0.5473	2.17
m1 = 0.5594	2.23
m1 = 0.5705	2.27

CC(=O)[O-].C[NH2+]CCO [N-methyl-2-hydroxyethylammonium acetate] + O
Conditions	electrical conductivity
m1 = 0.01579	0.077 S/m
m1 = 0.01797	0.09 S/m
m1 = 0.03269	0.14 S/m
m1 = 0.03539	0.162 S/m
m1 = 0.05165	0.21 S/m
m1 = 0.05369	0.236 S/m
m1 = 0.06943	0.29 S/m
m1 = 0.07132	0.318 S/m
m1 = 0.08822	0.356 S/m
m1 = 0.09023	0.385 S/m
m1 = 0.1063	0.507 S/m
m1 = 0.1084	0.453 S/m
m1 = 0.1255	0.561 S/m
m1 = 0.1264	0.551 S/m
m1 = 0.1433	0.607 S/m
m1 = 0.1458	0.612 S/m
m1 = 0.162	0.66 S/m
m1 = 0.1641	0.665 S/m
m1 = 0.1793	0.705 S/m
m1 = 0.1809	0.713 S/m
m1 = 0.1972	0.75 S/m
m1 = 0.1983	0.762 S/m
m1 = 0.2133	0.804 S/m
m1 = 0.2134	0.787 S/m
m1 = 0.2303	0.833 S/m
m1 = 0.2308	0.838 S/m
m1 = 0.2458	0.87 S/m
m1 = 0.246	0.877 S/m
m1 = 0.2615	0.899 S/m
m1 = 0.2616	0.861 S/m
m1 = 0.276	0.893 S/m
m1 = 0.2762	0.942 S/m
m1 = 0.2904	0.926 S/m
m1 = 0.2909	0.968 S/m
m1 = 0.3042	0.957 S/m
m1 = 0.3044	0.998 S/m
m1 = 0.3175	1.01 S/m
m1 = 0.3178	1.03 S/m
m1 = 0.3298	1.04 S/m
m1 = 0.3302	1.04 S/m
m1 = 0.3422	1.07 S/m
m1 = 0.3425	1.08 S/m
m1 = 0.354	1.11 S/m
m1 = 0.3542	1.1 S/m
m1 = 0.3654	1.13 S/m and 1.12 S/m
m1 = 0.376	1.16 S/m
m1 = 0.3765	1.15 S/m
m1 = 0.3868	1.17 S/m
m1 = 0.3967	1.19 S/m
m1 = 0.4065	1.21 S/m
m1 = 0.4155	1.24 S/m
m1 = 0.4245	1.27 S/m

CCCC(=O)[O-].C[NH2+]CCO [N-methyl-2-hydroxyethylammonium butanoate] + O
Conditions	electrical conductivity [S/m]
m1 = 0.01443	0.041
m1 = 0.01609	0.047
m1 = 0.03059	0.077
m1 = 0.03161	0.084
m1 = 0.04718	0.115
m1 = 0.04851	0.122
m1 = 0.06311	0.149
m1 = 0.06401	0.155
m1 = 0.08077	0.185
m1 = 0.08176	0.189
m1 = 0.09698	0.232
m1 = 0.09705	0.235
m1 = 0.1139	0.268
m1 = 0.1146	0.267
m1 = 0.1298	0.298
m1 = 0.1307	0.297
m1 = 0.1464	0.324
m1 = 0.1479	0.328
m1 = 0.1614	0.35
m1 = 0.1638	0.355
m1 = 0.1771	0.372
m1 = 0.1802	0.383
m1 = 0.1918	0.395
m1 = 0.1952	0.408
m1 = 0.2064	0.42
m1 = 0.2106	0.434
m1 = 0.2201	0.44
m1 = 0.2246	0.456
m1 = 0.2336	0.46
m1 = 0.2384	0.478
m1 = 0.2466	0.48
m1 = 0.2514	0.496
m1 = 0.2596	0.498
m1 = 0.2644	0.516
m1 = 0.2712	0.513
m1 = 0.2766	0.528
m1 = 0.283	0.525
m1 = 0.2887	0.542
m1 = 0.294	0.54
m1 = 0.2998	0.558
m1 = 0.3048	0.556
m1 = 0.311	0.572
m1 = 0.3148	0.571
m1 = 0.3214	0.586
m1 = 0.3247	0.583
m1 = 0.3317	0.6
m1 = 0.334	0.596
m1 = 0.3412	0.611
m1 = 0.343	0.607
m1 = 0.3505	0.624
m1 = 0.3515	0.619
m1 = 0.3593	0.634
m1 = 0.3599	0.629
m1 = 0.3677	0.639
m1 = 0.3679	0.646
m1 = 0.3758	0.656
